Measured values published in patent publication US10065990B2, “Cyclic peptide compound, and preparation method, pharmaceutical composition and use thereof” (HANGZHOU GUANYU BIO-MEDICAL CO., LTD, priority 2013, dated 2018).
Read-outs that look alike come from different tables or passages of the source.

How the values were obtained:
HDAC11 = molecular target: T1, HDAC11 (Homo sapiens, UniProt Q96DB2); test: HDAC biochemical activity measurement (fluorescent substrate deacetylation);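 note: HDAC11 enzyme acting on an acetyl-lysine fluorogenic substrate, then a developer frees the fluorophore, read at excitation 360 nm and emission 460 nm, IC50 over a compound dilution series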
T1 sequence (Q96DB2 1-347): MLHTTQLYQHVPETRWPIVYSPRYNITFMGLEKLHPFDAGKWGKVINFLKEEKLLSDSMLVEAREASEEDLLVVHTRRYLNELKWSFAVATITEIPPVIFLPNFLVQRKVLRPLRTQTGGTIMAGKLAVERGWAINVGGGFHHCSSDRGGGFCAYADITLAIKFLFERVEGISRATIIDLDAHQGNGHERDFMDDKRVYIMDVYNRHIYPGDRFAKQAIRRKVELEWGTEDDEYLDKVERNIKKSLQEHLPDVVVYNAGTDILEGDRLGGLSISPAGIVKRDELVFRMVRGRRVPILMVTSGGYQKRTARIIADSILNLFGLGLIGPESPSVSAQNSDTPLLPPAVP

HDAC1 = HDAC1 (Homo sapiens, UniProt Q13547); test: as above
Sequence of HDAC1 (Q13547 whole entry, species assumed): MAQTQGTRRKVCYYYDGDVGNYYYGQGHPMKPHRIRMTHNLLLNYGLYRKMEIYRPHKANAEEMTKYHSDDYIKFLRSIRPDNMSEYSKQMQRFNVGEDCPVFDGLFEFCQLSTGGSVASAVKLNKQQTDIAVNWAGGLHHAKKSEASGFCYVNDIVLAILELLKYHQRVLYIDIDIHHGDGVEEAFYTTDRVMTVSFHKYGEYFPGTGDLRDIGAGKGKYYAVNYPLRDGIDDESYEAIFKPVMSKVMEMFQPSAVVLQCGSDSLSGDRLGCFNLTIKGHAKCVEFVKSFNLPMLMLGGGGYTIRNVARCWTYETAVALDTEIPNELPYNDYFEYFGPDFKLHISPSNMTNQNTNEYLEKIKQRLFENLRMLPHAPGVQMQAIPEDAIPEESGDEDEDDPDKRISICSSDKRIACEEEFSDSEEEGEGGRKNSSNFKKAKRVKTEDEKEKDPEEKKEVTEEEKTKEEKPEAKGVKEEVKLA

HDAC8 = molecular target: T2, HDAC8 (Homo sapiens, UniProt Q9BY41); test: as above; settings: 37° C. 30 minutes
T2 sequence (Q9BY41 1-377): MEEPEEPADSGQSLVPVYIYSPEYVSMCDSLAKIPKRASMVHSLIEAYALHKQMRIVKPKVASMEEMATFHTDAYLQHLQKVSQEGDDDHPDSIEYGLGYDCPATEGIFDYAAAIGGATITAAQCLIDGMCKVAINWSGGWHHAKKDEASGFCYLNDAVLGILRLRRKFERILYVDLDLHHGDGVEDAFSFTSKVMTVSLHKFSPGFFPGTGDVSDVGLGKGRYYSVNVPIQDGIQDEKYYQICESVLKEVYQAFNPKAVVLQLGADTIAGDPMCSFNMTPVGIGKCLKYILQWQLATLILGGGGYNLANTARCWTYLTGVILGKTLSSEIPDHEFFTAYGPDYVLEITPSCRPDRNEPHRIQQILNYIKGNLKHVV
Protocol: The chemical activity of the compound is determined according to the degree of deacetylation inhibition of the HDAC enzyme. This experiment measured the degree of deacetylation related to tumor proliferation and metastasis of HDAC1, HDAC2, HDAC3, HDAC8, HDAC11 five subtypes HDAC enzymes. After the substrate containing an acetylated lysine side chain and HDAC enzyme are labeled with a fluorescent label, the fluorescent substrate is de acetyl. The fluorescent labeled substrate is cleaved by the enzyme, and the fluorescent substance is released, which generates 460 nm emission light under the excitation of 360 nm light.
HDAC substrate was diluted with reaction buffer to 200M (reaction concentration of 20M), the HDAC enzyme was diluted to the appropriate concentration, then added different concentrations of the test compounds and acted at 37° C. 30 minutes, and then added the same volume of 2-times concentration substrate developing solution (developer), incubated at room temperature for 15 minutes.

[1] = test system: Bel-7402 (human hepatoma cells); test: MTT cancer cell growth inhibition; format: cell-based; settings: MTT, 72 hours incubation, Bel-7402 cells, read-out: GI50 Bel-7402
Method in brief: (§1)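 GI50 values come from viability measured by MTT reduction at 570 nm. Plated overnight at 1500 cells per well, cultures received drug in three parallel wells across 10^−5–10^−10 M final and were incubated 72 h at 37° C. under 5% CO2 before MTT for 4 h.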

[2] = test system: PANC-1 (Pac-1, human pancreatic cancer cells); test: MTT cancer cell growth inhibition; format: cell-based; settings: MTT
Method in brief: as §1

[3] = test system: MOLT-4 (human acute lymphoblastic leukemia cells); test: MTT cancer cell growth inhibition; format: cell-based; settings: MTT
Method in brief: as §1

[4] = test system: U937 (human leukemia cells); test: MTT cancer cell growth inhibition; format: cell-based; settings: MTT
Method in brief: as §1

[5] = test system: DU145 (human prostate cancer cells); test: MTT cancer cell growth inhibition; format: cell-based; settings: MTT
Method in brief: as §1

[6] = test system: MCF-7 (human breast cancer cells); test: MTT cancer cell growth inhibition; format: cell-based
Method in brief: as §1

[7] = test system: A549 (human lung cancer cells); test: MTT cancer cell growth inhibition; format: cell-based; settings: MTT
Method in brief: as §1

[8] = test system: HT1080 (human fibrosarcoma cells); test: MTT cancer cell growth inhibition; format: cell-based; settings: MTT
Method in brief: as §1

[9] = test system: BGC-823 (human gastric cancer cells); test: MTT cancer cell growth inhibition; format: cell-based; settings: MTT
Method in brief: as §1

[10] = test system: N-87 (human gastric cancer cells); test: MTT cancer cell growth inhibition; format: cell-based; settings: MTT, 72 hours incubation, N-87 cells, read-out: GI50 N-87
Method in brief: as §1

[11] = test system: MDA-MB-231 (breast cancer cells); test: MTT cancer cell growth inhibition; format: cell-based
Method in brief: as §1

[12] = test system: Huh-7 (human hepatoma cells); test: MTT cancer cell growth inhibition; format: cell-based; settings: MTT, 72 hours incubation, Huh-7 cells, read-out: GI50 Huh-7
Method in brief: as §1

[13] = test system: SGC-7901 (human gastric cancer cells); test: MTT cancer cell growth inhibition; format: cell-based; settings: MTT, 72 hours incubation, SGC-7901 cells, read-out: GI50 SGC-7901
Method in brief: as §1

[14] = test system: Hela (human cervical cancer cells); test: MTT cancer cell growth inhibition; format: cell-based; settings: MTT
Method in brief: as §1

[15] = test system: HCC827 (human non-small cell lung cancer cells); test: MTT cancer cell growth inhibition; format: cell-based; settings: MTT, 72 hours incubation, HCC827 cells, read-out: GI50 HCC827
Method in brief: as §1

[16] = HDAC1, 37° C. 30 minutes, read-out: IC50 HDAC1
[17] = Homo sapiens, PANC-1, 72 h, PANC-1 cells, 72 hours incubation, read-out: GI50 PAN
[18] = Homo sapiens, MOLT-4, 72 h, MOLT-4 cells, 72 hours incubation, read-out: GI50 Mol
[19] = Homo sapiens, U-937, 72 h, U937 cells, 72 hours incubation, read-out: GI50 U93
[20] = Homo sapiens, DU-145, 72 h, DU145 cells, 72 hours incubation, read-out: GI50 Du1
[21] = Homo sapiens, MCF7, 72 h, MCF-7 cells, 72 hours incubation, read-out: GI50 MCF
[22] = Homo sapiens, A549, 72 h, A549 cells, 72 hours incubation, read-out: GI50 A54
[23] = Homo sapiens, HT-1080, 72 h, HT1080 cells, 72 hours incubation, read-out: GI50 HT1
[24] = Homo sapiens, BGC-823, 72 h, BGC-823 cells, 72 hours incubation, read-out: GI50 BG
[25] = Homo sapiens, MDA-MB-231, 72 h, read-out: GI50 MDA-MB-231, MTT, 72 hours incubation, MDA-MB-231 cells
[26] = Homo sapiens, HeLa, 72 h, Hela cells, 72 hours incubation, read-out: GI50 Hela
[27] = read-out: IC50 HDAC11, HDAC11, 37° C. 30 minutes
[28] = Table 3, column C, read-out: IC50 HDAC1, C (six-membered ring with substituents)
[29] = Homo sapiens, PANC-1, 72 h, 72 hours incubation, read-out: GI50 PAN
[30] = Homo sapiens, MOLT-4, 72 h, 72 hours incubation, read-out: GI50 Mol
[31] = Homo sapiens, U-937, 72 h, 72 hours incubation, read-out: GI50 U93
[32] = Homo sapiens, DU-145, 72 h, 72 hours incubation, read-out: GI50 Du1
[33] = Homo sapiens, MCF7, 72 h, 72 hours incubation, read-out: GI50 MCF
[34] = Homo sapiens, A549, 72 h, 72 hours incubation, read-out: GI50 A54
[35] = Homo sapiens, HT-1080, 72 h, 72 hours incubation, read-out: GI50 HT1
[36] = Homo sapiens, BGC-823, 72 h, 72 hours incubation, read-out: GI50 BG
[37] = Homo sapiens, HeLa, 72 h, 72 hours incubation, read-out: GI50 Hela
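Throughout, for IC50 HDAC1, C (six-membered ring with substituents): fluorogenic acetyl-lysine substrate (20 µM) deacetylated by HDAC1, then developer releases fluorophore read at 360 nm excitation and 460 nm emission, inhibitor incubated 30 min at 37 °C.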
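Throughout, for IC50 HDAC1, D (non-substituent): fluorogenic acetyl-lysine substrate (20 µM) deacetylated by HDAC1, then developer releases fluorophore read at 360 nm excitation and 460 nm emission, inhibitor incubated 30 min at 37 °C.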
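Throughout, for IC50 HDAC1, a (compounds of the present invention): fluorogenic acetyl-lysine substrate (20 µM) deacetylated by HDAC1, then developer releases fluorophore read at 360 nm excitation and 460 nm emission, inhibitor incubated 30 min at 37 °C.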
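Throughout, for IC50 HDAC1: fluorogenic acetyl-lysine substrate (20 µM) deacetylated by HDAC1, then developer releases fluorophore read at 360 nm excitation and 460 nm emission, inhibitor incubated 30 min at 37 °C.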

IC50 (HDAC11) [nM]	IC50 (HDAC1; [16]) [nM]	IC50 (HDAC8) [nM]	GI50 ([1]; Homo sapiens, Bel-7402, 72 h) [nM]	GI50 [2, 17] [nM]	GI50 [3, 18] [nM]	GI50 [4, 19] [nM]	GI50 [5, 20] [nM]	GI50 ([10]; Homo sapiens, 72 h) [nM]	GI50 [11, 25] [nM]	GI50 ([12]; Homo sapiens, Huh-7, 72 h) [nM]	GI50 ([13]; Homo sapiens, SGC-7901, 72 h) [nM]	GI50 ([15]; Homo sapiens, HCC827, 72 h) [nM]	IC50 (HDAC11; [27]) [nM]	GI50 [2, 29] [nM]	GI50 [3, 30] [nM]	GI50 [6, 33] [nM]	GI50 [7, 34] [nM]	GI50 [8, 35] [nM]	GI50 [14, 37] [nM]	Compound	other results
98	84	21	41	100	20	70	50	31	16	11	26	46	–	–	–	–	–	–	–	C/C=C1\NC(=O)c2nc(ccc2SCCC)CNC(=O)C[C@@H](/C=C/CCSC(=O)CCCCCCC)OC(=O)[C@H](CC)NC1=O [Compound 174]	GI50 [6, 21]: 80 nM; GI50 [7, 22]: 50 nM; GI50 [8, 23]: 10 nM; GI50 [9, 24]: 30 nM; GI50 [14, 26]: 20 nM
–	13	38	67	–	–	–	–	75	38	38	38	67	83	60	30	90	30	60	80	C/C=C1\NC(=O)c2cc(F)cc(n2)CNC(=O)C[C@@H](/C=C/CCSC(=O)CCCCCCC)OC(=O)[C@H](C)NC1=O [Compound 61]	IC50 (HDAC1; [28]): 13 nM; GI50 [4, 31]: 50 nM; GI50 [5, 32]: 30 nM; GI50 [9, 36]: 70 nM
–	12	43	82	–	–	–	–	30	37	37	35	82	84	80	30	20	30	80	80	C/C=C1\NC(=O)c2nc(ccc2F)CNC(=O)C[C@@H](/C=C/CCSC(=O)CCCCCCC)OC(=O)[C@H](C(C)C)NC1=O [Compound 30]	IC50 (HDAC1; [28]): 12 nM; GI50 [4, 31]: 30 nM; GI50 [5, 32]: 30 nM; GI50 [9, 36]: 30 nM
–	45	49	83	–	–	–	–	35	97	53	31	53	101	60	10	30	80	40	50	C/C=C1\NC(=O)c2cccc(n2)CNC(=O)C[C@@H](/C=C/CCSC(=O)CCCCCCC)OC(=O)[C@H](CC)NC1=O [Compound 9]	IC50 (HDAC1; Table 2, read-out: IC50 HDAC1, a (compounds of the present invention)): < 50 nM; IC50 (HDAC1; Table 3, read-out: IC50 HDAC1, D (non-substituent)): 45 nM; GI50 ([2]; Homo sapiens, PANC-1, 72 h, 72 hours, present invention, read-out: GI50 PANC-1, a): 60 nM; GI50 ([3]; Homo sapiens, MOLT-4, 72 h, 72 hours, present invention, read-out: GI50 Molt-4, a): 11 nM; GI50 ([4]; Homo sapiens, U-937, 72 h, 72 hours, present invention, read-out: GI50 U937, a): 1 nM; GI50 ([5]; Homo sapiens, DU-145, 72 h, 72 hours, present invention, read-out: GI50 Du145, a): 2 nM; GI50 ([6]; Homo sapiens, MCF7, 72 h, 72 hours, present invention, read-out: GI50 MCF7, a): 30 nM; GI50 ([7]; Homo sapiens, A549, 72 h, 72 hours, present invention, read-out: GI50 A549, a): 80 nM; GI50 ([8]; Homo sapiens, HT-1080, 72 h, 72 hours, present invention, read-out: GI50 HT1080, a): 40 nM; GI50 ([9]; Homo sapiens, BGC-823, 72 h, 72 hours, present invention, read-out: GI50 BGC823, a): 7 nM; GI50 ([14]; Homo sapiens, HeLa, 72 h, 72 hours, present invention, read-out: GI50 Hela, a): 50 nM
–	35	78	–	–	–	–	–	–	–	–	–	–	93	–	–	–	–	–	–	C/C=C1\NC(=O)c2ncc(SC)c(n2)CNC(=O)C[C@@H](/C=C/CCSC(C)=O)OC(=O)[C@H](C(C)C)NC1=O [Compound 217]	GI50 [1]: 37 nM; GI50 ([2]; PANC-1 cells, 72 hours incubation, read-out: GI50 PAN): 70 nM; GI50 ([3]; MOLT-4 cells, 72 hours incubation, read-out: GI50 Mol): 90 nM; GI50 ([4]; U937 cells, 72 hours incubation, read-out: GI50 U93): 90 nM; GI50 ([5]; DU145 cells, 72 hours incubation, read-out: GI50 Du1): 20 nM; GI50 ([6]; MCF-7 cells, 72 hours incubation, read-out: GI50 MCF): 60 nM; GI50 ([7]; A549 cells, 72 hours incubation, read-out: GI50 A54): 70 nM; GI50 ([8]; HT1080 cells, 72 hours incubation, read-out: GI50 HT1): 20 nM; GI50 ([9]; BGC-823 cells, 72 hours incubation, read-out: GI50 BG): 30 nM; GI50 [10]: 57 nM; GI50 ([11]; read-out: GI50 MDA-MB-231, MTT, 72 hours incubation, MDA-MB-231 cells): 19 nM; GI50 [12]: 19 nM; GI50 [13]: 28 nM; GI50 ([14]; Hela cells, 72 hours incubation, read-out: GI50 Hela): 10 nM; GI50 [15]: 29 nM
92	73	42	65	60	80	50	30	73	51	15	19	25	–	–	–	–	–	–	–	C/C=C1\NC(=O)c2ccc(SC)c(n2)CNC(=O)C[C@@H](/C=C/CCSC(C)=O)OC(=O)[C@H](CC)NC1=O [Compound 179]	GI50 [6, 21]: 60 nM; GI50 [7, 22]: 60 nM; GI50 [8, 23]: 40 nM; GI50 [9, 24]: 30 nM; GI50 [14, 26]: 30 nM
